Data: the OPERA property sets (Mansouri et al. 2018)

Row | Compound | logP
1 | CC(=O)NNC(=O)Nc1cccc([N+](=O)[O-])c1 | 0.67
2 | CC(=O)NNC(=O)Nc1ccc(I)cc1 | 1.65
3 | CC(=O)NNC(=O)Nc1ccc(N(C)C)cc1 | 0.11
4 | CC(=O)NNC(=O)Nc1ccc(Oc2ccccc2)cc1 | 2.01
5 | CC(=O)NNC(=O)Nc1ccc(C(C)(C)C)cc1 | 2.08
6 | CC(=O)NNC(=O)Nc1ccc(Cl)cc1 | 1.12
7 | CC(=O)NNC(=O)Nc1cccc(F)c1 | 0.73
8 | CC(=O)NNC(=O)Nc1cccc(Cl)c1 | 1.33
9 | COc1ccc(NC(=O)NNC(C)=O)cc1 | 0.11
10 | CC(=O)NNC(=O)Nc1cccc(C(F)(F)F)c1 | 1.59
11 | CC(=O)NNC(=O)Nc1ccc([N+](=O)[O-])cc1 | 0.77
12 | CC(=O)NNC(=O)Nc1cccc(Br)c1 | 1.48
13 | CC(=O)NNC(=O)Nc1cccc(C)c1 | 0.75
14 | CC(=O)NNC(=O)Nc1ccc(Br)cc1 | 1.38
15 | CC(=O)NNC(=O)Nc1ccc(C)cc1 | 0.67
16 | CC(=O)NNC(=O)Nc1ccccc1 | 0.25
17 | CC(=O)NNC(=O)Nc1ccc(C#N)cc1 | 0.38
18 | CC(=O)NNC(=O)Nc1ccc(F)cc1 | 0.45
19 | CC(=O)NNC(=O)Nc1cccc(I)c1 | 1.71
20 | CC(=O)NNC(=O)Nc1ccc(O)cc1 | -0.79
21 | COc1cccc(NC(=O)NNC(C)=O)c1 | 0.33
22 | CCOc1ccc(NC(=O)NNC(C)=O)cc1 | 0.51
